Tested on: 855422-203-R-J1-PDC complex spheroid viability
Experiment: Anticancer human tumor 855422-203-R-J1-PDC patient-derived bladder carcinoma cell line growth inhibition
Details: for IC50: curve of first compound; for viability, T/C: stronger effect = lower value
Procedure, shortened: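 Multicellular complex spheroids of tumor cells with human endothelial cells (HUVEC) and mesenchymal stem cells; the LSD1 inhibitor iadademstat was combined with standard-of-care or investigational agents. Top concentration at or near clinical Cmax, half-log dilutions; final DMSO ≤0.25%.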

[1] = second compound 0.1 µM, first compound 0.00949 µM
[2] = second compound 0.1 µM, first compound 0.03 µM
[3] = second compound 0.1 µM, first compound 0.0949 µM
[4] = second compound 0.1 µM, first compound 0.3 µM
[5] = second compound 0.316 µM, first compound 0.00949 µM
[6] = second compound 0.316 µM, first compound 0.03 µM
[7] = second compound 0.316 µM, first compound 0.0949 µM
[8] = second compound 0.316 µM, first compound 0.3 µM
[9] = second compound 1 µM, first compound 0.00949 µM
[10] = second compound 1 µM, first compound 0.03 µM
[11] = second compound 1 µM, first compound 0.0949 µM
[12] = second compound 1 µM, first compound 0.3 µM
[13] = second compound 3.16 µM, first compound 0.00949 µM
[14] = second compound 3.16 µM, first compound 0.03 µM
[15] = second compound 3.16 µM, first compound 0.0949 µM
[16] = second compound 3.16 µM, first compound 0.3 µM
[17] = second compound 10 µM, first compound 0.00949 µM
[18] = second compound 10 µM, first compound 0.03 µM
[19] = second compound 10 µM, first compound 0.0949 µM
[20] = second compound 10 µM, first compound 0.3 µM
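Also: drug exposure lasted 7 days starting on day 3 after seeding.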
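For viability, T/C in this document: luminescence viability as percent of DMSO vehicle wells = 100%.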

Compound `Nc1ncn(C2CC(O)C(CO)S2)c(=O)n1` (stereo not given) + NC1CC1c1ccc(-c2cccc(O)c2)cc1 has an IC50 (second compound 0.1 µM) of over 0.3 µM, an IC50 (second compound 0.316 µM) of over 0.3 µM and an IC50 (second compound 1 µM) of over 0.3 µM. The IC50 (second compound 3.16 µM) was over 0.3 µM, the IC50 (second compound 10 µM) was over 0.3 µM and the viability, T/C (second compound 0.1 µM, first compound 0.000949 µM) was 94.4%. The viability, T/C (second compound 0.1 µM, first compound 0.003 µM) was 95.2%, the viability, T/C [1] was 92.8% and the viability, T/C [2] was 105%. The viability, T/C [3] was 93.2%, the viability, T/C [4] was 83.5% and the viability, T/C (second compound 0.316 µM, first compound 0.000949 µM) was 87.7%. It also gave a viability, T/C (second compound 0.316 µM, first compound 0.003 µM) of 91.2%, a viability, T/C [5] of 92.3% and a viability, T/C [6] of 103%. For the same compound, the viability, T/C [7] was 97.5%, the viability, T/C [8] was 77.9% and the viability, T/C (second compound 1 µM, first compound 0.000949 µM) was 87.3%. The viability, T/C (second compound 1 µM, first compound 0.003 µM) was 88.6%, the viability, T/C [9] was 93.5% and the viability, T/C [10] was 99.2%. The viability, T/C [11] was 95.4%, the viability, T/C [12] was 73.1% and the viability, T/C (second compound 3.16 µM, first compound 0.000949 µM) was 81.9%. For the same compound, the viability, T/C (second compound 3.16 µM, first compound 0.003 µM) was 84.9%, the viability, T/C [13] was 91.3% and the viability, T/C [14] was 93.4%. It also gave a viability, T/C [15] of 93.7%, a viability, T/C [16] of 73.4% and a viability, T/C (second compound 10 µM, first compound 0.000949 µM) of 85.9%. For the same compound, the viability, T/C (second compound 10 µM, first compound 0.003 µM) was 83.3%, the viability, T/C [17] was 85.6% and the viability, T/C [18] was 94.3%. The viability, T/C [19] was 84.4% and the viability, T/C [20] was 68.8%.
`Nc1ccccc1NC(=O)c1ccc(CNC(=O)OCc2cccnc2)cc1` + NC1CC1c1ccc(-c2cccc(O)c2)cc1 was tested, and the IC50 (second compound 0.1 µM) was 1.22 µM, the IC50 (second compound 0.316 µM) was 1.3 µM and the IC50 (second compound 1 µM) was 1.07 µM. For the same compound, the IC50 (second compound 3.16 µM) was 0.993 µM, the IC50 (second compound 10 µM) was 1.03 µM and the viability, T/C [1] was 90.3%. It also gave a viability, T/C [2] of 91.2%, a viability, T/C [3] of 98.5% and a viability, T/C [4] of 97.8%. The viability, T/C (second compound 0.1 µM, first compound 0.949 µM) was 60.8%, the viability, T/C (second compound 0.1 µM, first compound 3 µM) was 11.8% and the viability, T/C [5] was 95.3%. It also gave a viability, T/C [6] of 92.6%, a viability, T/C [7] of 104% and a viability, T/C [8] of 96.4%. For the same compound, the viability, T/C (second compound 0.316 µM, first compound 0.949 µM) was 65.9%, the viability, T/C (second compound 0.316 µM, first compound 3 µM) was 7.62% and the viability, T/C [9] was 89.4%. For the same compound, the viability, T/C [10] was 90.4%, the viability, T/C [11] was 85.9% and the viability, T/C [12] was 82.8%. For the same compound, the viability, T/C (second compound 1 µM, first compound 0.949 µM) was 54.7%, the viability, T/C (second compound 1 µM, first compound 3 µM) was 6.8% and the viability, T/C [13] was 87.9%. The viability, T/C [14] was 86.6%, the viability, T/C [15] was 91% and the viability, T/C [16] was 90.2%. For the same compound, the viability, T/C (second compound 3.16 µM, first compound 0.949 µM) was 51.9%, the viability, T/C (second compound 3.16 µM, first compound 3 µM) was 5.73% and the viability, T/C [17] was 98.7%. For the same compound, the viability, T/C [18] was 91.3%, the viability, T/C [19] was 91.1% and the viability, T/C [20] was 87.4%. The viability, T/C (second compound 10 µM, first compound 0.949 µM) was 53.5% and the viability, T/C (second compound 10 µM, first compound 3 µM) was 2.03%.
`Cn1ncnc1C1c2n[nH]c(=O)c3cc(F)cc(c23)NC1c1ccc(F)cc1` (stereo not given) + NC1CC1c1ccc(-c2cccc(O)c2)cc1 was tested, and the IC50 (second compound 0.1 µM) was over 0.1 µM, the IC50 (second compound 0.316 µM) was over 0.1 µM and the IC50 (second compound 1 µM) was over 0.1 µM. The IC50 (second compound 3.16 µM) was over 0.1 µM, the IC50 (second compound 10 µM) was over 0.1 µM and the viability, T/C (second compound 0.1 µM, first compound 0.000316 µM) was 91.5%. It also gave a viability, T/C (second compound 0.1 µM, first compound 0.001 µM) of 75.1%, a viability, T/C (second compound 0.1 µM, first compound 0.00316 µM) of 74.4% and a viability, T/C (second compound 0.1 µM, first compound 0.01 µM) of 77.3%. For the same compound, the viability, T/C (second compound 0.1 µM, first compound 0.0316 µM) was 80.9%, the viability, T/C (second compound 0.1 µM, first compound 0.1 µM) was 86.2% and the viability, T/C (second compound 0.316 µM, first compound 0.000316 µM) was 89.2%. The viability, T/C (second compound 0.316 µM, first compound 0.001 µM) was 76.7%, the viability, T/C (second compound 0.316 µM, first compound 0.00316 µM) was 76.1% and the viability, T/C (second compound 0.316 µM, first compound 0.01 µM) was 84.2%. The viability, T/C (second compound 0.316 µM, first compound 0.0316 µM) was 87.6%, the viability, T/C (second compound 0.316 µM, first compound 0.1 µM) was 91.9% and the viability, T/C (second compound 1 µM, first compound 0.000316 µM) was 95.8%. The viability, T/C (second compound 1 µM, first compound 0.001 µM) was 97.3%, the viability, T/C (second compound 1 µM, first compound 0.00316 µM) was 96.5% and the viability, T/C (second compound 1 µM, first compound 0.01 µM) was 102%. It also gave a viability, T/C (second compound 1 µM, first compound 0.0316 µM) of 82.7%, a viability, T/C (second compound 1 µM, first compound 0.1 µM) of 90.5% and a viability, T/C (second compound 3.16 µM, first compound 0.000316 µM) of 102%. The viability, T/C (second compound 3.16 µM, first compound 0.001 µM) was 106%, the viability, T/C (second compound 3.16 µM, first compound 0.00316 µM) was 103% and the viability, T/C (second compound 3.16 µM, first compound 0.01 µM) was 109%. For the same compound, the viability, T/C (second compound 3.16 µM, first compound 0.0316 µM) was 94.1%, the viability, T/C (second compound 3.16 µM, first compound 0.1 µM) was 97.2% and the viability, T/C (second compound 10 µM, first compound 0.000316 µM) was 106%. The viability, T/C (second compound 10 µM, first compound 0.001 µM) was 110%, the viability, T/C (second compound 10 µM, first compound 0.00316 µM) was 97.6% and the viability, T/C (second compound 10 µM, first compound 0.01 µM) was 109%. It also gave a viability, T/C (second compound 10 µM, first compound 0.0316 µM) of 100% and a viability, T/C (second compound 10 µM, first compound 0.1 µM) of 102%.
